Data on 21 molecules can be found in patent publication US20090170886A1 (Pfizer Inc, priority 2005, published 2009).

The target in series [1] is T1, hAR (human androgen receptor, baculovirus/Sf9 generated extracts) (Homo sapiens, UniProt P10275).
T1 construct: made in house; host or cells: baculovirus/Sf9 insect cells (crude extract)
T1 sequence (P10275 1-920): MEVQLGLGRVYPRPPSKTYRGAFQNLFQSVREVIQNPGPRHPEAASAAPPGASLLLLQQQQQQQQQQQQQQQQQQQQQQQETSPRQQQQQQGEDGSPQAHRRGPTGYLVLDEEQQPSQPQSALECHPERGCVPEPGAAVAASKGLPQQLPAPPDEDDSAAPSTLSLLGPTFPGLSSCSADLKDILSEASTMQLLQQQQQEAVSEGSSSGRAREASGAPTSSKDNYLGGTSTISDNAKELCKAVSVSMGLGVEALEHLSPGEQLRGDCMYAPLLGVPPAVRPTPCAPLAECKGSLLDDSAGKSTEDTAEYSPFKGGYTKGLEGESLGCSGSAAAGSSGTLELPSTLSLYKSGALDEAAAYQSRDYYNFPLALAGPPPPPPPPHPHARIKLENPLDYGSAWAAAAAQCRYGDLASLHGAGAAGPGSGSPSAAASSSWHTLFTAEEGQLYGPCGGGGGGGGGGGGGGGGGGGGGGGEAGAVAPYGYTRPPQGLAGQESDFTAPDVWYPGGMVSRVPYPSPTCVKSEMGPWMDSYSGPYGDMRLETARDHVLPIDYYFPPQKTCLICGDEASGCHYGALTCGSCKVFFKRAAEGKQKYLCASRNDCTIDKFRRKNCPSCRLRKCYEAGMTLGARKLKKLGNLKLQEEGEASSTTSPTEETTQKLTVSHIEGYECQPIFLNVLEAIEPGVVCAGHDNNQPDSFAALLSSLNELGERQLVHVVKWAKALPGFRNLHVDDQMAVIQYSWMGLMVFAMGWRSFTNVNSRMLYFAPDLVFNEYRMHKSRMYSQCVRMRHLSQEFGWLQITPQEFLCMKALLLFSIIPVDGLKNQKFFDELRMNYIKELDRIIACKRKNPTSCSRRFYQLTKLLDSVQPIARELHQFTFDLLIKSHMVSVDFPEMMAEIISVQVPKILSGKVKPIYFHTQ
In words: AR Binding Assay (competitive binding with 3H-DHT tracer). As to conditions: 1 nM 3H-DHT, one hour at 4° C., mean of multiple tests. The method, boiled down: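 Compounds at decreasing concentrations were incubated with baculovirus/Sf9 hAR extract, hydroxylapatite and 1 nM ^3H-DHT for one hour at 4° C., then washed three times. The value is the compound concentration inhibiting half of maximum ^3H-DHT binding, reported as the mean of multiple tests.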

In series [2] the target is T2, androgen receptor in MDA-MB453-MMTV clone 54-19 cells (Homo sapiens, UniProt P10275).
T2 sequence (P10275 1-920 Q868H): T1 sequence (P10275 1-920) with Q868H
In words: AR Antagonist Cell Assay (MMTV-luciferase reporter, DHT-induced). Type of series: cell-based. The conditions noted are these: MDA-MB453-MMTV clone 54-19, 100 pM DHT, 17 hr; mean of multiple tests. In short, it runs like this:
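MDA-MB453 cells stably carrying an ARE-containing MMTV-luciferase reporter, in phenol red-free medium with 1% charcoal-treated serum, preincubated 30 min with compound (0.32-1000 nM), then stimulated with 100 pM DHT for 17 h at 37 °C. Luminescence read; percent inhibition of DHT fold induction.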
In general terms: A reporter such as luciferase makes a cellular process visible.

Another series concerns spinal BMD. The conditions noted are these: after 7 years of treatment; cited from earlier work.
[3] abbreviates: hAR extract, read-out: AR Binding IC50.

Numbering of substitutions follows the chain as printed. Where two headings read alike, the source gives them in different places.

As for `Cc1cccc(COc2ccc(C#N)cc2Cl)c1` [Example 40, 3-Chloro-4-(3-methyl-benzyloxy)-benzonitrile], the melting point (usually the temperature of the solid-liquid transition) fell in the range of 73 to 75 °C. Moreover, the IC50 (as a rule, the point on the concentration scale where inhibition reaches its midpoint) in series [1] (setting [3]) was 783 nM. For `N#Cc1ccc(OCC2COc3ccccc3O2)cc1Cl` (centres unmarked) [Example 69, 2-Chloro-4-(2,3-dihydro-benzo[1,4]dioxin-2-ylmethoxy)-benzonitrile], the figures for the IC50 in series [1] (setting [3]) and in series [2] were 108 nM and > 1000 nM, respectively.

Take `CC(C)(Oc1ccc(C#N)c(Cl)c1)c1ccccc1` [Example 70, 2-Chloro-4-(1-methyl-1-phenyl-ethoxy)-benzonitrile]: the IC50 was 53 nM in series [1] (AR Binding IC50, hAR extract) and > 1000 nM in series [2]. Taken in the same sequence, the figures for `CC(Oc1ccc(C#N)c(Cl)c1)c1ccccc1` (centres unmarked) [Example 71, 2-Chloro-4-(1-phenyl-ethoxy)-benzonitrile] were 13 nM and 8 nM. As for `COc1cc(OCCc2cccc(F)c2)ccc1C#N` [Example 71B, 4-[2-(3-Fluoro-phenyl)-ethoxy]-2-methoxy-benzonitrile], the IC50 in series [1] (setting [3]) turned out to be 155 nM; in series [2], 41.4 nM.

With `COc1cncc(C(C)Oc2ccc(C#N)c(C(F)(F)F)c2)c1` (centres unmarked) [Example 72, 4-[1-(5-Methoxypyridin-3-yl)ethoxy]-2-(trifluoromethyl)benzonitrile], the IC50 in series [1] (setting [3]) is 203 nM; in series [2], 441 nM.

For `CC(Oc1ccc(C#N)c(C(F)(F)F)c1)c1cncc(O)c1` (centres unmarked) [Example 73, 4-[1-(5-Hydroxypyridin-3-yl)ethoxy]-2-(trifluoromethyl)benzonitrile], the IC50 was 110 nM in series [1] (setting [3]) and 70 nM in series [2]. `N#Cc1ccc(CCOc2ccc(C#N)c(C(F)(F)F)c2)cc1` [Example 75, 4-[2-(4-Cyano-phenyl)-ethoxy]-2-trifluoromethyl-benzonitrile]: the IC50 is 343 nM in series [1] (AR Binding IC50, hAR extract) and 55 nM in series [2]. `COc1cccc(CCOc2ccc(C#N)c(C(F)(F)F)c2)c1` [Example 77, 4-[2-(3-Methoxy-phenyl)-ethoxy]-2-trifluoromethyl-benzonitrile]: the IC50 is 109 nM in series [1] (AR Binding IC50, hAR extract) and 11 nM in series [2]. Taken in the same sequence, the figures for `CCCC(Oc1ccc(C#N)c(C(F)(F)F)c1)c1ccccn1` (centres unmarked) [Example 81, 4-(1-Pyridin-2-yl-butoxy)-2-trifluoromethyl-benzonitrile] were 54.3 nM and 280 nM. For `N#Cc1ccc(OC(Cc2ccccc2)c2ccccn2)cc1C(F)(F)F` (centres unmarked) [Example 82, 4-(2-Phenyl-1-pyridin-2-yl-ethoxy)-2-trifluoromethyl-benzonitrile], the IC50 in series [1] (setting [3]) is 238 nM; in series [2] it was > 1000 nM. Turning to `CC(C)CC(Oc1ccc(C#N)c(C(F)(F)F)c1)c1ccccn1` (centres unmarked) [Example 83, 4-(3-Methyl-1-pyridin-2-yl-butoxy)-2-trifluoromethyl-benzonitrile], the results for the IC50 in series [1] (setting [3]) and in series [2] were 119 nM and > 1000 nM, respectively.

As to `CCCCC(Oc1ccc(C#N)c(C(F)(F)F)c1)c1ccccn1` (centres unmarked) [Example 84, 4-(1-Pyridin-2-yl-pentyloxy)-2-trifluoromethyl-benzonitrile], the IC50 was 161 nM in series [1] (setting [3]) and > 667 nM in series [2]. Taken in the same sequence, the figures for `Cc1cccc(C(CC(C)C)Oc2ccc(C#N)c(C(F)(F)F)c2)n1` (centres unmarked) [Example 85, 4-[3-Methyl-1-(6-methyl-pyridin-2-yl)-butoxy]-2-trifluoromethyl-benzonitrile] were 167 nM and > 1000 nM. In the case of `CCC(Oc1ccc(C#N)c(C(F)(F)F)c1)c1cccnc1` (centres unmarked) [Example 90, 4-(1-Pyridin-3-yl-propoxy)-2-trifluoromethyl-benzonitrile], the IC50 in series [1] (setting [3]) was 167 nM; in series [2], 142 nM. Taken in the same sequence, the figures for `N#Cc1ccc(OC(Cc2ccccc2)c2cccnc2)cc1C(F)(F)F` (centres unmarked) [Example 91, 4-(2-Phenyl-1-pyridin-3-yl-ethoxy)-2-trifluoromethyl-benzonitrile] were 116 nM and 342 nM. Take `CCCC(Oc1ccc(C#N)c(C(F)(F)F)c1)c1cncc(OCOCCOC)c1` (centres unmarked) [Example 92]: the IC50 in series [1] (AR Binding IC50, hAR extract) was 74 nM; in series [2], > 934 nM. For the molecule `COCCOCOc1cncc(C(CC(C)C)Oc2ccc(C#N)c(C(F)(F)F)c2)c1` (centres unmarked) [Example 93, 4-{1-[5-(2-Methoxy-ethoxymethoxy)-pyridin-3-yl]-3-methyl-butoxy}-2-trifluoromethyl-benzonitrile], the IC50 in series [1] (AR Binding IC50, hAR extract) was 98 nM; in series [2] it was 202 nM.

Take `CCC(Oc1ccc(C#N)c(C(F)(F)F)c1)c1cncc(O)c1` (centres unmarked) [Example 94, 4-[1-(5-Hydroxy-pyridin-3-yl)-propoxy]-2-trifluoromethyl-benzonitrile]: the IC50 in series [1] (AR Binding IC50, hAR extract) was found to be 75 nM; in series [2] it was 202 nM. For `CCCC(Oc1ccc(C#N)c(C(F)(F)F)c1)c1cncc(O)c1` (centres unmarked) [Example 95, 4-[1-(5-Hydroxy-pyridin-3-yl)-butoxy]-2-trifluoromethyl-benzonitrile] the same measures were 68 nM and 37 nM. As for `NCCCC(O)(P(=O)(O)O)P(=O)(O)O` [alendronate], the “increase in spinal BMD” value in the series with spinal BMD is reported as ≤ 11%.
